Common to all, as to experiment: DTP human tumour cell line panel, 48 h
Experiment [1] concerns CAKI-1 renal.
The subject of experiment [2] is HCT-116 colon.
Experiment [3] deals with OVCAR-4 ovarian.
For experiment [4], the system named is DU-145 prostate.
Experiment [5] has as its system UACC-257 melanoma.
The subject of experiment [6] is SK-OV-3 ovarian.
Experiment [7] relates to HOP-92 NSCLC.
The test system of experiment [8] is K-562 leukemia.
Experiment [9] deals with HOP-62 NSCLC.
The test system of experiment [10] is BT-549 breast.

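Each compound was tested at five concentrations against cells in 96-well plates for 48 hours. GI50 = concentration required for 50% inhibition of growth. The concentration for full growth arrest is given as TGI.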

As usually defined, the TGI is the concentration giving total growth inhibition. Low values mean more potent growth arrest, high ones less potent growth arrest. Turning to `Nn1c(Cc2ccc(Cl)cc2)n[nH]c1=O`, the concentration for total growth inhibition (TGI) in experiment [1], in experiment [2], in experiment [3], in [4], in experiment [5] and in experiment [6] was above 100 µM in each case. Also, the total growth inhibition concentration (TGI) in [7], in experiment [8] and in experiment [9] was above 100 µM in each case.
`Cn1ccnc1CCc1ccc(F)cc1F`: the TGI in experiment [3], in experiment [4], in experiment [10], in experiment [6], in experiment [8] and in [9] was above 100 µM in each case.
In the case of `O=C1C=Cc2c(Cl)sc(Cl)c21`, the TGI in experiment [1] stood at 4.57 µM; in [2], 2.33 µM; in [3] it was 37.1 µM; in [4] it was 5.29 µM; in [10], 7.92 µM; in experiment [5], 4.78 µM. The total growth inhibition concentration (TGI) in experiment [6] is 28.5 µM; in experiment [8] it was 3.21 µM; in experiment [9], 4.2 µM.
As for `N#CCCNCCN(CCN(C(=O)Nc1ccccc1)c1ccccc1)C(=O)Nc1ccccc1`, the concentration for total growth inhibition (TGI) in experiment [2] is above 100 µM; in experiment [4], above 100 µM; in experiment [10], above 100 µM; in experiment [5], 32.1 µM; in experiment [6], above 100 µM; in experiment [7], above 100 µM. For the same molecule, the total growth inhibition concentration (TGI) in experiment [8] and in experiment [9] was above 100 µM throughout.
For the molecule `CC1CN=C(Nc2cccc(C(F)(F)F)c2)S1` (configuration not stated), the total growth inhibition concentration (TGI) in experiment [2], in experiment [4], in experiment [10], in experiment [5], in experiment [6] and in [8] was above 100 µM each time. Further, in experiment [9], the TGI is above 100 µM.
Consider `COC(=O)C1=C(C)N2CCCOC2(C)C(C(=O)OC)C1c1cccc(Cl)c1` (configuration not stated), for which the TGI in experiment [1] is 92.5 µM; in [2], above 100 µM; in [3] it was above 100 µM; in experiment [5], 57.1 µM; in experiment [7] it was 73.9 µM; in [8], above 100 µM. Further, the TGI in experiment [9] is 48.7 µM.
With `C[C@]12CC[C@H]3[C@@H](CCC4=CC(=O)C=C[C@@]43O)[C@@H]1CCC2=O`, the total growth inhibition concentration (TGI) in experiment [1], in [2], in experiment [4], in [10], in experiment [5] and in [7] was above 100 µM in each case. Besides, the TGI in experiment [8] and in [9] was above 100 µM in each case.
For `CC(C)(C)C#C[P+](c1ccccc1)(c1ccccc1)c1ccccc1`, the total growth inhibition concentration (TGI) in experiment [1] amounted to 2.91 µM; in experiment [2], 0.95 µM; in [3], 1.42 µM; in [5], 2.07 µM; in experiment [6], 1.81 µM; in [7], 0.689 µM. Moreover, the figures for the total growth inhibition concentration (TGI) in experiment [8] and in experiment [9] were 4.83 µM and 1.79 µM, respectively.
On to `Cc1cccc2c1C(=O)C1(Cc3ccccc3C1=O)C2` (configuration not stated), for which the TGI in experiment [2], in experiment [3], in [4], in experiment [5], in experiment [6] and in experiment [7] was above 100 µM throughout. For the same molecule, the concentration for total growth inhibition (TGI) in experiment [8] and in experiment [9] was above 100 µM throughout.
Take `COc1c(-c2cc(C)c(Cl)c(=O)[nH]2)c(O)c(OC)c2occc12`: the total growth inhibition concentration (TGI) in experiment [1], in experiment [2], in experiment [3], in [4], in experiment [5] and in experiment [6] was above 100 µM each time. Further, the TGI in experiment [7], in [8] and in experiment [9] was above 100 µM in each case.
For `O=S(=O)(c1cc(Cl)ccc1Cl)N1CCN(S(=O)(=O)c2cc(Cl)ccc2Cl)CC1`, the total growth inhibition concentration (TGI) is above 100 µM in [1]; above 100 µM in experiment [2]; 29.6 µM in [4]; above 100 µM in [10]; above 100 µM in [5]; above 100 µM in experiment [7]. Further, the concentration for total growth inhibition (TGI) in experiment [8] and in [9] was above 100 µM each time.
On to `CC(=O)Nc1ccc2c(C(=O)O)c(C)c(=O)[nH]c2n1`, for which the concentration for total growth inhibition (TGI) in experiment [1], in [2], in experiment [4], in experiment [10], in [5] and in experiment [6] was above 100 µM throughout. For the same molecule, the TGI in [7] is 56 µM; in [8], above 100 µM.
In the case of `CCOC(=O)c1c(SC(=O)c2cc(OC)c(OC)c(OC)c2)n(-c2ccccc2)c(=S)n(-c2ccccc2)c1=O`, the total growth inhibition concentration (TGI) in experiment [1], in experiment [2], in experiment [3], in experiment [4], in experiment [5] and in experiment [6] was above 100 µM in each case. Also, the TGI in experiment [7], in experiment [8] and in experiment [9] was above 100 µM each time.
What is called GI50 is the concentration at which growth is held to half of that of the control. As for `COC12C=C/C(=C(/C(=O)OCc3ccncn3)C(=O)CCCCCCCCC3(OC)C=C/C(=C(/C(=O)OCc4ccncn4)C(=O)CCCCCCCC1)O3)O2`, the 50% growth inhibitory concentration (GI50) in [1] is 0.349 µM; in [2] it was 0.266 µM; in experiment [3], 0.317 µM; in [4] it was 0.484 µM; in experiment [10], 0.225 µM; in [5] it was 0.261 µM. Also, the values for the GI50 in experiment [6] and in [9] were 0.409 µM and 0.225 µM, respectively. The TGI was found to be 2.21 µM in [1]; 1.09 µM in [2]; 2.16 µM in [3]; 2.72 µM in experiment [4]; 0.78 µM in experiment [10]; 0.882 µM in [5]. For the same molecule, the figures for the TGI in experiment [6] and in experiment [9] were 3.75 µM and 0.6 µM, respectively.
On to `CCN1CCN(C(=O)[C@]23CC[C@@H](C)[C@H](C)[C@@H]2C2=CC[C@@H]4[C@@]5(C)C/C(=C/c6cccnc6)C(=O)C(C)(C)[C@@H]5CC[C@@]4(C)[C@]2(C)CC3)CC1`, for which the GI50 in experiment [1] is 2.12 µM; in experiment [2], 1.69 µM; in [3], 2.57 µM; in experiment [4], 2.08 µM; in [5] it was 2.21 µM; in experiment [6] it was 2.7 µM. In addition, the GI50 in experiment [7] was 1.57 µM; in experiment [8], 2.63 µM; in experiment [9] it was 2.43 µM. For the same molecule, the TGI in experiment [1] came to 11.8 µM; in experiment [2], 3.55 µM; in experiment [3] it was 7.36 µM; in experiment [4], 4.21 µM; in experiment [5] it was 5.95 µM; in experiment [6], 9.2 µM. Also, the TGI in experiment [7] was found to be 5.73 µM; in experiment [8], 7.44 µM; in experiment [9] it was 5.86 µM.
For the molecule `Cc1cc(S(=O)(=O)Nc2nc3ccsc3c(=O)n2N)c(S)cc1Cl`, the total growth inhibition concentration (TGI) in experiment [1], in experiment [2], in experiment [3], in experiment [4], in experiment [10] and in [5] was above 100 µM throughout. The TGI in experiment [6], in experiment [8] and in experiment [9] was above 100 µM each time.
For `CCNc1nc(N)c(C(=O)c2ccc(Cl)cc2)s1`, the concentration for total growth inhibition (TGI) in experiment [2], in experiment [3], in [4], in [10], in experiment [5] and in [6] was above 100 µM each time. Also, the concentration for total growth inhibition (TGI) in experiment [7], in experiment [8] and in [9] was above 100 µM in each case.
As for `Cc1ccc(S(=O)(=O)NC(=O)NC(Cc2c[nH]c3ccccc23)C(=O)O)cc1` (configuration not stated), the TGI in [2], in experiment [3], in [4], in experiment [10], in experiment [5] and in experiment [6] was above 100 µM each time. In addition, the TGI in experiment [7], in [8] and in experiment [9] was above 100 µM throughout.
As for `O=C1NN=C(c2ccc(Cl)cc2)CC1C1C(=O)N(c2ccccc2)N=C1c1ccccc1` (configuration not stated), the total growth inhibition concentration (TGI) is 44.8 µM in [2]; 86.5 µM in experiment [3]; above 100 µM in experiment [4]; 54.4 µM in experiment [10]; above 100 µM in experiment [6]; above 100 µM in experiment [8]. For the same molecule, the concentration for total growth inhibition (TGI) in experiment [9] is above 100 µM.
Turning to `CCCSc1cc(Cl)c(C)cc1S(=O)(=O)n1ccnc1OCCCN(C)C`, the concentration for total growth inhibition (TGI) in experiment [1], in experiment [2], in experiment [3], in experiment [4], in [10] and in [5] was above 100 µM throughout. Besides, the TGI in experiment [6], in experiment [8] and in experiment [9] was above 100 µM throughout.
As for `Cc1cn(C2CC(O)C(CO)C2C)c(=O)[nH]c1=O` (configuration not stated), the total growth inhibition concentration (TGI) in experiment [2], in [3], in [5], in experiment [6], in [7] and in experiment [8] was above 100 µM in each case. For the same molecule, the TGI in experiment [9] is above 100 µM.
Consider `CCN(CC)CCCCCCCCNc1c2ccc(Cl)cc2nc2ccc(OC)cc12`, for which the GI50 was 2.37 µM in experiment [1]; 1.36 µM in experiment [2]; 1.14 µM in experiment [3]; 1.55 µM in experiment [4]; 1.97 µM in [5]; 1.39 µM in [7]. Further, the GI50 in [8] was 0.376 µM; in [9] it was 1.4 µM. The total growth inhibition concentration (TGI) in experiment [1] was 6.67 µM; in experiment [2] it was 3.14 µM; in experiment [3] it was 2.71 µM; in experiment [4] it was 3.18 µM; in [5], 3.57 µM; in experiment [7] it was 3.31 µM. Further, the concentration for total growth inhibition (TGI) was found to be 2.23 µM in experiment [8] and 3.13 µM in experiment [9].
For the molecule `C=Nc1ccc([N+](=O)[O-])cc1`, the TGI in [1], in experiment [2], in [3], in experiment [5], in [6] and in [7] was above 100 µM each time. The TGI in [8] was above 60.5 µM.
As to `Cc1nc2c(cc1C(=O)NN)c(=O)n(C)c(=O)n2C`, the TGI in experiment [1], in experiment [2], in experiment [3], in experiment [4], in [10] and in experiment [5] was above 100 µM each time. Also, the TGI in experiment [6], in experiment [8] and in [9] was above 100 µM in each case.
With `CSC1=Nc2ccccc2-c2nc(-c3ccccc3)cc(-c3ccccc3)c2C1`, the concentration for total growth inhibition (TGI) in experiment [1] was 30 µM; in experiment [2], 30.7 µM; in [3], above 100 µM; in [4], above 100 µM; in experiment [10] it was above 100 µM; in [5] it was above 100 µM. The total growth inhibition concentration (TGI) in [6] was 30.6 µM; in experiment [8] it was above 100 µM; in [9], above 100 µM.
Turning to `CCSc1ncnc2c(C3OC(CO)C(O)C3O)nsc12` (configuration not stated), the total growth inhibition concentration (TGI) in experiment [1], in [2], in [3], in [4], in [6] and in experiment [7] was above 100 µM throughout. Further, the TGI in experiment [8] and in [9] was above 100 µM in each case.
As for `CCNC(=S)N/N=C/c1cc(OC)ccc1O`, the TGI in [2], in experiment [3], in experiment [4], in experiment [5], in [6] and in [7] was above 100 µM in each case. The total growth inhibition concentration (TGI) in experiment [8] and in [9] was above 100 µM throughout.
As for `O=C(O)CC(NC(=O)Nc1ccc([N+](=O)[O-])cc1)C(=O)Nc1ccc([N+](=O)[O-])cc1` (configuration not stated), the TGI in experiment [1], in experiment [2], in [3], in experiment [4], in experiment [10] and in experiment [5] was above 100 µM each time. The total growth inhibition concentration (TGI) in experiment [6], in [8] and in experiment [9] was above 100 µM each time.
With `O=[N+]([O-])C(/C(Cl)=C(/Cl)N1CCOCC1)=C1\NCCO1`, the TGI in [1], in experiment [2], in [3], in experiment [4], in experiment [10] and in experiment [5] was above 100 µM throughout. For the same molecule, the TGI in experiment [6] and in experiment [9] was above 100 µM each time.
